In BindingDB's records for PubMed 7651361 (Georgetown University, 1995):
Where “and” joins values, the source holds several entries; their conditions need not be identical. Equal values may be shown once.

The compounds below were run against Nicotinic acetylcholine receptor (Rattus leucopus, UniProt Q62594).
Chain of Nicotinic acetylcholine receptor (Q62594 whole entry): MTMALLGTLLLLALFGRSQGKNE
For C[N+](C)(C)CCCCCC[N+](C)(C)C [Hexamethoniumdibromide], the Ki was > 10 µM.
With COc1cc2c3cc1Oc1cc(ccc1O)CC1c4c(cc(OC)c(O)c4Oc4ccc(cc4)CC3[N+](C)(C)CC2)CC[N+]1(C)C (stereo not drawn) [CAS_8063-06-7] the Ki was 4.5 µM and 2.03 µM.
CN1[C@@H]2CC[C@H]1CC(OC(=O)[C@H](CO)c1ccccc1)C2 (stereo partly drawn) [CAS_51-55-8] was tested, and the Ki was > 10 µM.
